Measured values reported in US11707500B2, “Growth promoting peptides, and uses thereof” (NURITAS LIMITED, priority 2015, dated 2023).

The substances below were run on Human Dermal Fibroblasts (HDF) (assay: BrdU cell proliferation assay). Details: HDF incubated 24 h with 5, 0.5 or 0.05 μg/ml synthetic peptide; percentage of untreated control.
Assay type: cell-based
Protocol: BrDu is incorporated into newly synthesised DNA strands of actively proliferating cells. Following partial denaturation of double stranded DNA, Brdu is detected immunochemically allowing the assessment of the population of cells which are synthesizing DNA.
Human Dermal Fibroblasts (HDF—Sigma 10605a) were seeded in a 96 well plate at 10,000 cells per well in DMEM containing 10% fetal calf serum (FCS), 1% Pen/strep, 1% L-glutamine and allowed to adhere for 24 h.
Following the initial 24 h incubation the cells were incubated with 5 μg/ml, 0.5 μg/ml or 0.05 μg/ml synthetic peptide for 24 h respectively.
After 18 h incubation with synthetic peptides 20 μl BrDu reagent was added to each well.
At 24 h incubation the cell were fixed and the amount of […] was measured using the BrdU Cell Proliferation Assay, all steps were carried out according to the manufacturer's instructions.
Results were calculated as a percentage of the untreated control. An increase in optical density reading indicates greatER incorporation of BrDu and increase cell proliferation.

Row | Substance | INCREASE IN PROLIFERATION [%]
1 | 73 (ASSNLDLLGFG) [compound 73] | 16
2 | 74 (DEEEEQGEEEINK) [compound 74] | 29
3 | 83 (SRGPIYSNE) [compound 83] | 32
4 | 84 (EDDEEEEQGEEEINK) [compound 84] | 20
5 | 85 (DDEEEEQGEEEINK) [compound 85] | 35
6 | 93 (ITASSNLNLLGFG) [compound 93] | 26
7 | 97 (LVIPVNGPGKFE) [compound 97] | 26
8 | 98 (LVIPVNGPGKFEA) [compound 98] | 49
9 | 105 (LVIPVNGPGKF) [compound 105] | 40
10 | 112 (VVIIPAGHPVAITASSNLNLLGFG) [compound 112] | 15
11 | 114 (YPQLQDLDL) [compound 114] | 119
12 | 121 (LVIPVNGPGK) [compound 121] | 48
13 | 124 (VIPVNGPGK) [compound 124] | 15
14 | 146 (RHGEWRPSY) [compound 146] | 80
15 | 158 (NYDEGSEPRVPAQRE) [compound 158] | 21
16 | 181 (TIKLPAGTTSYLVNQDDEEDLRLVD) [compound 181] | 33
17 | 222 (IDGYDTPVEGR) [compound 222] | 110
18 | 226 (IYGPDTGVDYKDNQMR) [compound 226] | 30
19 | 247 (EGYYGEQQQQPGMTR) [compound 247] | 28
20 | 248 (GYYGEQQQQPGMTR) [compound 248] | 86
21 | 249 (EEGYYGEQQQQPGMTR) [compound 249] | 30
22 | 252 (SSEEGYYGEQQQQPGMTR) [compound 252] | 111
23 | 253 (SEEGYYGEQQQQPGMTR) [compound 253] | 112
24 | 256 (YGEQQQQPGMTR) [compound 256] | 117

Row | Substance | INCREASE IN PROLIFERATION [%]
25 | 257 (YYGEQQQQPGMTR) [compound 257] | 118
26 | 270 (TVFNGVLRPGQLL) [compound 270] | 47
27 | 272 (NGVLRPGQL) [compound 272] | 97
28 | 285 (DALEPDNR) [compound 285] | 81
29 | 330 (VIPAGHPVAVR) [compound 330] | 18
30 | 337 (IEKILLEE) [compound 337] | 8
31 | 341 (EVEERSQNIF) [compound 341] | 83
32 | 359 (GAFTPLQYKSYQD) [compound 359] | 15
33 | 365 (GAFTPLQYK) [compound 365] | 58
34 | 403 (LGAPDVGHPM) [compound 403] | 51
35 | 410 (YRELGAPDVGHPMSE) [compound 410] | 73
36 | 452 (HPRPPKPDAPR) [compound 452] | 76
37 | 453 (LQQAPPPPQR) [compound 453] | 25
38 | 454 (VGWGEQPWSPY) [compound 454] | 38
39 | 455 (FHMPP) [compound 455] | 47
40 | 457 (FWMA) [compound 457] | 114
41 | 460 (HMPSS) [compound 460] | 38
42 | 461 (HRFR) [compound 461] | 85
43 | 462 (HRRS) [compound 462] | 15
44 | 463 (HSPR) [compound 463] | 100
45 | 464 (HWFA) [compound 464] | 18
46 | 465 (MFRR) [compound 465] | 96
47 | 467 (MPPS) [compound 467] | 90
48 | 468 (MPRR) [compound 468] | 82

What follows are substances tested on Human Dermal Fibroblasts (HDF) (assay: BrdU cell proliferation assay). Details: text on FIGS. 1-100; incubated with synthetic peptide 24 h; vs untreated control.
Assay type: cell-based

Row | Substance | increase in HDF cell proliferation [%]
49 | ASSNLDLLGFG [SEQ ID NO: 73] | 16
50 | DDEEEEQGEEEINK [SEQ ID NO: 85] | 35
51 | DEEEEQGEEEINK [SEQ ID NO: 74] | 29
52 | DSINALEPDHR [SEQ ID NO: 474] | 121
53 | EDDEEEEQGEEEINK [SEQ ID NO: 84] | 20
54 | EEGYYGEQQQQPGMTR [SEQ ID NO: 249] | 30
55 | EGYYGEQQQQPGMTR [SEQ ID NO: 247] | 28
56 | EVEERSQNIF [SEQ ID NO: 341] | 83
57 | FHMPP [SEQ ID NO: 455] | 47
58 | FWM (FWMA) [SEQ ID NO: 457] | 114
59 | GAFTPLQYK [SEQ ID NO: 365] | 58
60 | GAFTPLQYKSYQD [SEQ ID NO: 359] | 15
61 | GALMLPHYN [SEQ ID NO: 504] | 119
62 | GALMLPHYNSR [SEQ ID NO: 505] | 118
63 | GYYGEQQQQPGMTR [SEQ ID NO: 248] | 86
64 | HMPSS [SEQ ID NO: 460] | 38
65 | HPMS [SEQ ID NO: 495] | 68
66 | HPRPPKPDAPR [SEQ ID NO: 452] | 76
67 | HRFR [SEQ ID NO: 461] | 85
68 | HRRS [SEQ ID NO: 462] | 15
69 | HSPR [SEQ ID NO: 463] | 100
70 | HWF (HWFA) [SEQ ID NO: 464] | 18
71 | IDGYDTPVEGR [SEQ ID NO: 222] | 110

Row | Substance | increase in HDF cell proliferation [%]
72 | IEKILLEE [SEQ ID NO: 337] | 8
73 | IFEDAITIPGR [SEQ ID NO: 477] | 81
74 | ITASSNLNLLGFG [SEQ ID NO: 93] | 26
75 | IYGPDTGVDYKDNQMR [SEQ ID NO: 226] | 30
76 | KTLDYWPSLR [SEQ ID NO: 479] | 106
77 | LDALEPDNRIESE [SEQ ID NO: 478] | 76
78 | LEPDNR [SEQ ID NO: 485] | 81
79 | LGAPDVGHPM [SEQ ID NO: 403] | 51
80 | LQQAPPPPQR [SEQ ID NO: 453] | 25
81 | LRGFSK [SEQ ID NO: 501] | 43
82 | LVIPVNGPGK [SEQ ID NO: 121] | 48
83 | LVIPVNGPGKF [SEQ ID NO: 105] | 40
84 | LVIPVNGPGKFE [SEQ ID NO: 97] | 26
85 | LVIPVNGPGKFEA [SEQ ID NO: 98] | 49
86 | LVSHPIAAHEGR [SEQ ID NO: 482] | 113
87 | MFRR [SEQ ID NO: 465] | 96
88 | MPMP [SEQ ID NO: 497] | 58
89 | MPPS [SEQ ID NO: 467] | 90
90 | MPRR [SEQ ID NO: 468] | 82
91 | NGVLRPGQL [SEQ ID NO: 272] | 97
92 | NYDEGSEPRVPAQRE [SEQ ID NO: 158] | 21
93 | PHMP [SEQ ID NO: 470] | 119
94 | PHMPS [SEQ ID NO: 471] | 38

Row | Substance | increase in HDF cell proliferation [%]
95 | PNSM [SEQ ID NO: 499] | 113
96 | PRRF [SEQ ID NO: 472] | 77
97 | RHGEWGPSY [SEQ ID NO: 480] | 102
98 | RHGEWRPSY [SEQ ID NO: 146] | 80
99 | RSQNIF [SEQ ID NO: 502] | 68
100 | SEEGYYGEQQQQPGMTR [SEQ ID NO: 253] | 112
101 | SRGPIYSNE [SEQ ID NO: 83] | 32
102 | SSEEGYYGEQQQQPGMTR [SEQ ID NO: 252] | 111
103 | TIKLPAGTTSYLVNQDDEEDLRLVD [SEQ ID NO: 181] | 33
104 | TVFNGVLRPGQLL [SEQ ID NO: 270] | 47
105 | VGWGEQPWSPY [SEQ ID NO: 454] | 38
106 | VIPAGHPVAVR [SEQ ID NO: 330] | 18
107 | VIPVNGPGK [SEQ ID NO: 124] | 15
108 | VVIIPAGHPVAITASSNLNLLGFG [SEQ ID NO: 112] | 15
109 | WDP (WDPA) [SEQ ID NO: 500] | 6
110 | WMK (WMKA) [SEQ ID NO: 473] | 41
111 | YGEQQQQPGMTR [SEQ ID NO: 256] | 117
112 | YLRGFS [SEQ ID NO: 503] | 125
113 | YPQLQDLDL [SEQ ID NO: 114] | 119
114 | YRELGAPDVGHPMSE [SEQ ID NO: 410] | 73
115 | YYGEQQQQPGMTR [SEQ ID NO: 257] | 118
